Results taken from the supplement of paper PMC7840683.
Structures can show the parent of a compound that is named as a salt. ± gives the standard deviation of the averaged measurements.

System: HepaRG
Experiment: LDH release cytotoxicity, % of total lysis control; higher = more cytotoxic
Conditions: 48 h
Method in brief: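 Eight-point half-log series of test chemicals, the highest at 100 µM, were given in duplicate for 48 h to single-lot HepaRG cells on collagen I-coated 96-well plates in serum-free induction medium with 0.5% DMSO. A Tecan Safire read resorufin fluorescence from CytoTox-ONE as a measure of LDH in 50 µL spent medium, with 0.1% Triton X in total lysis wells. Percent cytotoxicity was normalized to on-plate vehicle and total lysis controls and averaged over the duplicates.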

Structure (SMILES)	LDH release cytotoxicity (0.03162 µM)	LDH release cytotoxicity (0.1 µM)	LDH release cytotoxicity (0.3162278 µM)	LDH release cytotoxicity (1 µM)	LDH release cytotoxicity (3.16228 µM)	LDH release cytotoxicity (10 µM)	LDH release cytotoxicity (31.6228 µM)	LDH release cytotoxicity (100 µM)	other results
CCOP(=O)(NC(C)C)Oc1ccc(SC)c(C)c1 (stereo unspecified) [Fenamiphos]	-1.16 ± 0.47%	-1.81 ± 0.1%	-1.38 ± 0.062%	-1.28 ± 0.5%	-1.13 ± 0.23%	-1.56 ± 0.18%	-1.03 ± 0.43%	0.0773 ± 0.2%	–
C1N2CN3CN1CN(C2)C3 [Methenamine]	–	–	–	–	–	–	–	–	LDH release cytotoxicity (0.0322552 µM): -1.06 ± 0.69%; LDH release cytotoxicity (0.102 µM): -1.56 ± 0.28%; LDH release cytotoxicity (0.322552 µM): -1.99 ± 0.53%; LDH release cytotoxicity (1.02 µM): -2.63 ± 0.35%; LDH release cytotoxicity (3.2255232 µM): -1.7 ± 0.047%; LDH release cytotoxicity (10.2 µM): -1.59 ± 0.085%; LDH release cytotoxicity (32.2552 µM): -1.01 ± 0.47%; LDH release cytotoxicity (102 µM): 0.286 ± 0.11%
CC(C)(O)c1cnn2c(-c3ccc(F)c(-c4c(F)cccc4C#N)c3)cnc2n1	-0.882 ± 0.92%	-1.19 ± 0.31%	-1.7 ± 0.43%	-1.5 ± 1.5%	-1.51 ± 0.51%	-1.39 ± 0.59%	1.16 ± 0.29%	8.979 ± 0.087%	–
CCOc1cccc(C2(N3CCN(c4ccccc4)CC3)CCC(C)CC2)c1 (stereo unspecified)	-1.75 ± 0.02%	-2.4 ± 0.55%	-2.68 ± 0.082%	-2.73 ± 0.63%	-2.22 ± 0.23%	-2.03 ± 0.69%	-1.97 ± 0.4%	-1.12 ± 0.82%	–
Nc1ccc(Oc2ccc(N)cc2)cc1 [4,4'-Oxydianiline]	–	-3.05 ± 0.94%	–	-2.52 ± 0.66%	-1.772 ± 0.0034%	-0.999 ± 2.1%	17 ± 3.5%	62.8 ± 3.5%	LDH release cytotoxicity (0.031623 µM): -1.51 ± 0.78%; LDH release cytotoxicity (0.316228 µM): -1.18 ± 1.3%
CCN(CC)c1ccccc1 [N,N-Diethylaniline]	-1.55 ± 0.24%	-1.44 ± 0.47%	-1.37 ± 0.23%	-1.59 ± 0.4%	-0.839 ± 0.86%	-1.07 ± 0.4%	-0.362 ± 0.47%	0.493 ± 0.011%	–
O=C(O)C(F)(F)C(F)(F)C(F)(F)C(F)(F)C(F)(F)F [Perfluorohexanoic acid]	-0.915 ± 0.22%	-0.436 ± 0.56%	-1.48 ± 0.11%	-1.3 ± 0.12%	-1.58 ± 0.4%	-0.342 ± 0.24%	-0.769 ± 0.29%	0.349 ± 0.23%	–
Cc1cccc(N)c1N [2,3-Diaminotoluene]	-0.0536 ± 0.59%	-0.722 ± 0.31%	0.216 ± 0.21%	-0.468 ± 0.4%	-0.351 ± 0.98%	0.016 ± 0.52%	-0.572 ± 0.99%	0.619 ± 0.97%	–
Cc1cccc2ccccc12 [1-Methylnaphthalene]	–	-2.7 ± 0.83%	–	-3.13 ± 0.52%	-2.9 ± 0.43%	-2.97 ± 0.64%	-1.66 ± 0.63%	13.3 ± 7.7%	LDH release cytotoxicity (0.031623 µM): -2.15 ± 0.06%; LDH release cytotoxicity (0.316228 µM): -2.77 ± 1.2%
O=[N+]([O-])C(CO)(CO)CO [2-(Hydroxymethyl)-2-nitro-1,3-propanediol]	0.0153 ± 0.39%	-1.5 ± 0.4%	-1.73 ± 0.99%	-0.843 ± 0.29%	-0.932 ± 1.1%	-1.24 ± 1.2%	-0.797 ± 0.24%	0.918 ± 1.3%	–
CNC(=O)ON=C(C)SC [Methomyl]	-0.681 ± 0.27%	-1.04 ± 0.28%	-0.724 ± 0.3%	-0.623 ± 0.49%	-1.04 ± 0.3%	-0.128 ± 0.062%	-1.13 ± 0.27%	-0.0692 ± 0.37%	–
O=[N+]([O-])c1ccc(O)cc1 [Sodium 4-nitrophenolate]	-0.704 ± 0.2%	-1.68 ± 0.15%	-1.99 ± 0.34%	-1.48 ± 0.37%	-1.71 ± 0.25%	-1.02 ± 0.3%	-0.45 ± 0.45%	0.91 ± 0.54%	–
CCCCc1nc2cccnc2n1Cc1ccc(-c2ccccc2-c2nnn[nH]2)cc1	-0.82 ± 0.17%	-1.42 ± 0.13%	-0.874 ± 0.059%	-0.211 ± 0.38%	-0.956 ± 0.67%	-0.404 ± 0.78%	-0.609 ± 1.2%	1.6 ± 1.9%	–
COc1cc(-c2ccc(N)c(OC)c2)ccc1N [3,3'-Dimethoxybenzidine dihydrochloride]	-1.44 ± 0.28%	-1.17 ± 0.44%	-1.43 ± 0.26%	-2.08 ± 0.059%	-1.15 ± 0.23%	-0.317 ± 0.23%	0.438 ± 1%	3.4 ± 0.6%	–
Cc1ccc(N=CN(C)C=Nc2ccc(C)cc2C)c(C)c1 [Amitraz]	-0.945 ± 0.9%	-1.23 ± 0.17%	-2.67 ± 0.32%	-1.98 ± 0.68%	-2.06 ± 0.065%	-1.45 ± 0.35%	-0.79 ± 0.2%	1.17 ± 1.8%	–
Clc1nc(Cl)c(Cl)c(Cl)c1Cl [Pentachloropyridine]	-0.545 ± 0.73%	-1.54 ± 0.25%	-1.28 ± 1.4%	-1.08 ± 1.1%	-0.873 ± 0.5%	-1.56 ± 0.52%	-0.833 ± 0.26%	0.716 ± 0.84%	–
Nc1ccc(S(=O)(=O)c2ccc(N)cc2)cc1 [Dapsone]	-1.24 ± 0.6%	-0.379 ± 0.2%	-1.16 ± 0.45%	-0.536 ± 0.3%	0.1 ± 0.69%	-0.392 ± 0.19%	0.105 ± 1%	1.63 ± 0.23%	–
CCCCC(CC)COC(=O)c1ccccc1C(=O)OCC(CC)CCCC (stereo unspecified) [Di(2-ethylhexyl) phthalate]	–	–	–	–	–	–	–	–	LDH release cytotoxicity (0.01581 µM): -1.27 ± 1.2%; LDH release cytotoxicity (0.05 µM): -1.74 ± 0.036%; LDH release cytotoxicity (0.1581139 µM): -1.47 ± 0.65%; LDH release cytotoxicity (0.5 µM): -0.91 ± 0.3%; LDH release cytotoxicity (1.5811388 µM): -1.48 ± 0.38%; LDH release cytotoxicity (5 µM): -1.76 ± 0.37%; LDH release cytotoxicity (15.8114 µM): -0.407 ± 1.5%; LDH release cytotoxicity (50 µM): -0.778 ± 0.45%
CCCCCCCC=O [Octanal]	-2.27 ± 0.13%	-2.49 ± 0.035%	-2.18 ± 1.1%	-1.59 ± 0.17%	-1.99 ± 0.053%	-1.65 ± 0.19%	-0.367 ± 0.076%	-0.293 ± 0.53%	–

Structure (SMILES)	LDH release cytotoxicity (0.03162 µM)	LDH release cytotoxicity (0.1 µM)	LDH release cytotoxicity (0.3162278 µM)	LDH release cytotoxicity (1 µM)	LDH release cytotoxicity (3.16228 µM)	LDH release cytotoxicity (10 µM)	LDH release cytotoxicity (31.6228 µM)	LDH release cytotoxicity (100 µM)	other results
CCOP(=S)(OCC)Oc1ccc([N+](=O)[O-])cc1 [Parathion]	-1.76 ± 1.2%	-2.78 ± 0.71%	-2.35 ± 0.15%	-2.92 ± 0.81%	-3.21 ± 0.57%	-2.39 ± 0.84%	-1.78 ± 1.4%	6.21 ± 0.097%	–
CN(C)N=O [N-Nitrosodimethylamine]	–	–	–	–	–	–	–	–	LDH release cytotoxicity (0.02893 µM): 0.0505 ± 1.7%; LDH release cytotoxicity (0.0915 µM): -1.57 ± 0.31%; LDH release cytotoxicity (0.289348 µM): -0.817 ± 0.056%; LDH release cytotoxicity (0.915 µM): -1.29 ± 0.63%; LDH release cytotoxicity (2.89348 µM): -2.32 ± 1.1%; LDH release cytotoxicity (9.15 µM): -0.967%; LDH release cytotoxicity (28.9348 µM): -0.682 ± 0.11%; LDH release cytotoxicity (91.5 µM): 0.3 ± 0.0093%
O=c1[nH]c2ccc(S(=O)CCN3CCC(Cc4ccc(F)cc4)CC3)cc2o1 (stereo unspecified) [Besonprodil]	-2.69 ± 1.3%	-1.42 ± 0.9%	-1.87 ± 0.18%	-0.983 ± 0.15%	-0.767 ± 0.42%	-1.16 ± 0.83%	-1.7 ± 0.064%	2.32 ± 2.9%	–
N[C@@H](Cc1c[nH]c2ccccc12)C(=O)O [L-Tryptophan]	-1.94 ± 0.23%	-2.65 ± 0.14%	-1.1 ± 0.19%	-1.86 ± 0.22%	-2.03 ± 0.27%	-1.29 ± 0.26%	-1.37 ± 0.3%	-1.29 ± 0.24%	–
Clc1ccccc1Cl [1,2-Dichlorobenzene]	-1.68 ± 0.72%	-1.12 ± 0.22%	-2 ± 0.56%	-1.81 ± 0.094%	-1.83 ± 0.1%	-1.2 ± 0.57%	-1.06 ± 0.67%	-0.133 ± 0.15%	–
NC(=O)N=NCc1ccc([N+](=O)[O-])o1 [Nitrofurazone]	-0.299 ± 0.59%	-1.51 ± 0.4%	-1.48 ± 0.51%	-1.87 ± 0.52%	-1.76 ± 0.92%	-0.788 ± 0.29%	-0.997 ± 0.33%	0.128 ± 0.43%	–
Cc1ccc(N)cc1 [4-Methylaniline]	-1.74 ± 0.54%	-1.26 ± 0.25%	-1.71 ± 0.048%	-2.15 ± 0.07%	-1.82 ± 0.86%	-1.12 ± 0.11%	-1.47 ± 0.87%	0.2 ± 0.81%	–
CCOC(N)=O [Urethane]	-1.53 ± 1%	-1.5 ± 0.84%	-1.42 ± 0.68%	-1.29 ± 0.5%	-1.03 ± 0.12%	-1.2 ± 0.054%	-0.4372 ± 0.0016%	0.365 ± 1.2%	–
C=CCc1cc(S(=O)(=O)c2ccc(O)c(CC=C)c2)ccc1O [4,4'-Sulfonylbis[2-(prop-2-en-1-yl)phenol]]	-0.87 ± 0.11%	-2.88 ± 0.65%	-1.86 ± 0.44%	-2.39 ± 0.7%	-2.01 ± 0.34%	-1.55 ± 0.91%	-1.16 ± 0.93%	0.193 ± 0.0097%	–
OCC(CO)(CO)CO [Pentaerythritol]	-0.674 ± 0.59%	-1.13 ± 0.089%	-1.3 ± 0.092%	-1.89 ± 1%	-0.206 ± 1.4%	-1.15 ± 0.98%	-0.431 ± 0.65%	0.764 ± 0.28%	–
O=C(O)c1nc(Cl)ccc1Cl [Clopyralid-olamine]	-1.75 ± 0.021%	-1.37 ± 0.22%	-2.18 ± 0.81%	-3.35 ± 1.5%	-1.65 ± 0.032%	-1.04 ± 0.99%	-1.18 ± 0.77%	0.521 ± 0.14%	–
CC#CC1(O)CCC2C3CCC4=CC(=O)CCC4=C3C(c3ccc(N(C)C)cc3)CC21C (stereo unspecified) [Mifepristone]	-0.549 ± 0.3%	-1.11 ± 0.089%	-0.633 ± 0.052%	2.47 ± 0.61%	17.4 ± 0.87%	31.5 ± 1.6%	42.2 ± 5.7%	60.9 ± 3%	–
CCOC(=O)c1ccc(C2CCC(NCC(O)COc3ccc(O)c(NS(C)(=O)=O)c3)CC2)cc1 (stereo unspecified)	-1.1 ± 0.76%	-1.92 ± 0.32%	-1.82 ± 0.24%	-2.5 ± 0.6%	-1.76 ± 0.12%	-1.05 ± 0.85%	-1.59 ± 0.16%	-0.279 ± 0.043%	–
O=C=NCCCCCCN=C=O [1,6-Diisocyanatohexane]	-1.38 ± 0.69%	-0.852 ± 1.4%	0.3 ± 0.43%	-0.656 ± 0.29%	0.0821 ± 0.041%	0.975 ± 0.72%	0.748 ± 0.51%	0.578 ± 0.58%	–
CCN(Cc1c(F)cccc1Cl)c1c([N+](=O)[O-])cc(C(F)(F)F)cc1[N+](=O)[O-] [Flumetralin]	-0.56 ± 1.7%	-0.903 ± 0.34%	-1.29 ± 0.66%	-1.01 ± 0.52%	-0.0868 ± 0.54%	-0.582 ± 0.92%	-0.2 ± 0.43%	5.506 ± 0.052%	–
Cc1ccc(C(C)C)c(O)c1 [Thymol]	-0.805 ± 1.1%	-0.378 ± 0.63%	-1.08 ± 0.33%	-0.734 ± 0.81%	-1.25 ± 0.71%	-0.124 ± 0.09%	0.381 ± 0.15%	1.26 ± 0.35%	–
CN(C)c1ccc(C(=O)c2ccc(N(C)C)cc2)cc1 [Michler's ketone]	-2.16 ± 0.051%	-1.79 ± 0.22%	-1.41 ± 0.071%	-2.73 ± 1%	2.66 ± 0.82%	9.37 ± 0.13%	7.06 ± 0.09%	12.9 ± 2%	–
Sc1nc2ccccc2s1 [2-Mercaptobenzothiazole]	-0.515 ± 0.59%	0.0327 ± 0.27%	-0.565 ± 1.2%	-0.708 ± 0.47%	0.4 ± 0.3%	0.658 ± 0.27%	1.05 ± 0.11%	3.61 ± 0.18%	–
